Data published in ChEMBL document CHEMBL1139041, “Design and synthesis of 2'-anilino-4,4'-bipyridines as selective inhibitors of c-Jun N-terminal kinase-3” (Bioorg Med Chem Lett, 2006).
Converted amounts (≈) assume the structure as drawn.

How the values were obtained:
[1] = Solubility in phosphate buffer at pH 7.4; format: physicochemical
[2] = Intrinsic clearance in rat microsomes; format: ADME, Microsome; details: liver microsomes
[3] = Permeability across Caco-2 cell membrane; format: ADME, cell-based; details: human, read-out: permeability
[4] = Bioavailability in rat; format: ADME, organism-based; details: in vivo
[5] = Clearance in rat; format: ADME, organism-based; details: in vivo
[6] = Half life in po dosed rat; format: ADME, organism-based; details: in vivo

Question: For COC1CCC(C(=O)Nc2cc(-c3ccnc(Nc4ccccc4)c3)ccn2)CC1 (configuration not stated), which solubility [1] is on record?
Answer: 8 µM (≈ 3.22 µg/mL)

Question: With O=C(Nc1cc(-c2ccnc(Nc3ccccc3)c2)ccn1)c1ccco1 as the compound, how does the solubility [1] read?
Answer: 4 µM (≈ 1.43 µg/mL)

Question: Which solubility [1] does the source give for Fc1ccc(Nc2cc(-c3ccnc(Nc4ccc(F)cc4)c3)ccn2)cc1 here?
Answer: < 0.1 µM

Question: With O=C(Nc1cc(-c2ccnc(Nc3ccccc3)c2)ccn1)C1CCOC1 (configuration not stated) as the compound, how does the microsomal CLint [2] read?
Answer: 12 µL/min/mg

Question: What about the Papp [3] of the same compound?
Answer: 29.9 ×10⁻⁶ cm/s

Question: What about the bioavailability [4] of the same compound?
Answer: 16%

Question: And the clearance [5]?
Answer: 30 mL/min/kg

Question: What about the half-life [6] of the same compound?
Answer: 4.7 h

Question: With Cc1cnc(C(=O)Nc2cc(-c3ccnc(Nc4ccccc4)c3)ccn2)cn1 as the compound, how does the solubility [1] read?
Answer: 40 µM (≈ 15.3 µg/mL)

Question: Which solubility [1] does the source give for COCCC(=O)Nc1cc(-c2ccnc(Nc3ccccc3)c2)ccn1 here?
Answer: 20 µM (≈ 6.97 µg/mL)

Question: Which solubility [1] does the source give for O=C(Nc1cc(-c2ccnc(Nc3ccccc3)c2)ccn1)c1cccnc1 here?
Answer: 17 µM (≈ 6.25 µg/mL)

Question: Which solubility [1] does the source give for CC(=O)N1CCC(C(=O)Nc2cc(-c3ccnc(Nc4ccccc4)c3)ccn2)CC1 here?
Answer: 94 µM (≈ 39.1 µg/mL)
